# Reference: patent publication US10010560B2, “Small molecule HSP70 inhibitors” (THE TRUSTEES OF THE UNIVERSITY OF PENNSYLVANIA, priority 2014, dated 2018)
# How the values were obtained:
# [1] = tested on: melanoma tumor cell lines; assay: Cellular ATP levels (AlamarBlue assay) in tumor cells; type: cell-based, human
# Text: FIGS. 5A-5F illustrates that PET-16 leads to loss of mitochondrial protein Cyclophilin D and impairs bioenergetics in tumor cells. FIGS. 5A-5D are western blots of HSP70, which is present at mitochondria of tumor H1299 cells but not in normal tissue, such as liver. The constitutively expressed 70 kDa family members, HSC70 and GRP75, are present in mitochondria of normal cells. Equal amounts of whole cell (WC)-, cytosolic (cyto)-, and mitochondrial (mito)-extracts prepared from cell lines H1299 (A, C) and MIA PaCa-2 (B) or normal (liver) cells (C, D) were examined by western blot analysis for the presence of the proteins indicated. […] Decreases of AlamarBlue® fluorescence, indicative of mitochondrial damage, are noted in PET-16-treated tumor cells (melanoma tumor cell line WM88 (-), melanoma tumor cell line WM3000 (×), melanoma tumor cell line WM852 (*), human melanoma 451 Lu cells (●), and melanoma tumor cell line WM989 (|), but not normal cells (nontransformed human fibroblasts (IMR90-♦) and primary melanocytes (▪)). Values are normalized to the vehicle-treated cells. Error bars represent standard deviation (s.d.) of four independent experiments.
# [2] = tested on: STAT3 and STAT1; assay: IL-6 induced STAT3 and STAT1 phosphorylation in melanoma cell lines; type: cell-based; details: cells pre-treated with compound
# Text: (§1) FIGS. 4A-4L illustrate that PET-16 impairs proteostasis. […] There is a general absence of obvious nuclei in PET-16 treated tumor cells. […] FIGS. 4D and 4E are gels of whole-cell extracts (WCE) prepared from human melanoma A875 (D) or 451 Lu (E) cells treated with DMSO, PES or PET-16 that were immunoprecipitated using an anti-HSP70 antibody. The excised band of about 70 kDa shown in the Coomassie gel is HSP70, as confirmed by liquid chromatography—tandem mass spectrometry analysis. FIGS. 4F-4I are western blots of cell lines were treated with DMSO, PES or PET-16 for 24 h and immunoblotted for the indicated proteins. FIG. 4J are western blots of indicated melanomas pretreated with DMSO, PES or PET-16, followed by treatment with IL-6. Cell extracts were immunoblotted for the proteins indicated. Inhibition of IL-6 induced STAT3 and STAT1 phosphorylation by PET-16. FIG. 4K is a western blot analysis indicating altered processing of cathepsin L from the larger precursor form to the smaller mature form in the indicated cells following PET-16 treatment for 24 h. FIG. 4L is a western blot of the human melanoma 451 Lu cells treated with DMSO, PES or PET-16 for 24 h. Cells were harvested in 1% NP40-containing lysis buffer, fractionated into detergent-soluble and detergent-insoluble preparations, and assayed by western blot for ubiquitin. […]
# [3] = tested on: tumor cells; assay: Electron microscopy analysis of treated tumor cells; type: cell-based
# Text: as §1
structure (smiles),measurement,setting,value
"C(#C[P+](c1ccccc1)(c1ccccc1)c1ccccc1)c1ccccc1.[Br-] [PET-16, triphenyl(phenylethynyl)phosphonium bromide]",AlamarBlue fluorescence (mitochondrial function),[1],clear decrease
same,IL-6 mediated phosphorylation of STAT3 and STAT1,[2],inhibited
same,autophagy and proteostasis by EM,[3],altered autophagy and impaired proteostasis
